This note sets out measurements from patent US12410160B2 (Gilead Sciences, Inc., priority 2021, dated 2025).

One assay deals with human KHK-C (Homo sapiens (Human), UniProt P50053). Kind of assay: KHK Biochemical Assay (IC50), ADP-Glo, KHK-C. To be noted: average of at least two separate assays. Put shortly: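 His-tagged enzyme expressed in BL21 (DE3), Ni-NTA purified. Compounds, serially diluted 1:3 in DMSO, pre-incubated 30 min with enzyme in 50 mM Hepes pH 7.4, 140 mM KCl, 5 mM MgCl2, 0.01% Triton-X, then ATP and fructose added; 4 h at room temperature. ADP formation read by ADP-Glo luminescence.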
(ADP-Glo turns the ADP formed in a reaction into a luminescent signal.)

The next assay concerns HepG2 cells. Description: F1P Cell-Based Assay (EC50), 13C6-fructose-1-phosphate in HepG2 cells (cell culture medium or 50% human plasma).
[1] abbreviates: Homo sapiens, HepG2, HepG2 cells, 50% human plasma, read-out: F1P 50% HP EC50.
[2] abbreviates: Homo sapiens, HepG2, read-out: F1P 10% FBS EC50, HepG2 cells, cell culture medium (10% FBS).
The mark [3] stands for this setting: HepG2 cells, 50% human plasma, read-out: F1P 50% HP EC50.
Setting [4] is: read-out: F1P 10% FBS EC50, HepG2 cells, cell culture medium (10% FBS).

Like-named read-outs stand apart in the source and are kept apart here.

human KHK-C, sequence (P50053 whole entry): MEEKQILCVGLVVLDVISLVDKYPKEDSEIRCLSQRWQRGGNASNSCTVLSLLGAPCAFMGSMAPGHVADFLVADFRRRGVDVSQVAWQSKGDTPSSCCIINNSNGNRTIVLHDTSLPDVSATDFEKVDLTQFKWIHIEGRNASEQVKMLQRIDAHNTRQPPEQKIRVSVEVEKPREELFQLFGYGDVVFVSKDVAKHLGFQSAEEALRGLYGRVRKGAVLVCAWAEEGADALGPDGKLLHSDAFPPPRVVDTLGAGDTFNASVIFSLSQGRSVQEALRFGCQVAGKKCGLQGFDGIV

Regarding `[2H]C1([2H])[C@@H](O)[C@H](C)N1c1nc(-c2ccc3c(c2)OC[C@@H]3NS(C)(=O)=O)c2c(n1)C(F)(F)CC2` [Example 480, N—((R)-6-(7,7-difluoro-2-((2S,3R)-3-hydroxy-2-methylazetidin-1-yl-4,4-d2)-6,7-dihydro-5H-cyclopenta[d]pyrimidin-4-yl)-2,3-dihydrobenzofuran-3-yl)methanesulfonamide], half-maximal inhibition on human KHK-C (IC50) was put at 0.6 nM. The results for the EC50 in the assay with HepG2 cells (setting [1]) and with HepG2 cells (setting [2]) were 23.7 nM and 9.4 nM, respectively.
The matching figures for `C[C@H]1[C@H](O)CN1c1nc(-c2ccc3c(c2)OCC32COC(=O)N2)c2c(n1)C(F)(F)CC2` (stereo partly drawn) [Example 481, 6-(7,7-difluoro-2-((2S,3R)-3-hydroxy-2-methylazetidin-1-yl)-6,7-dihydro-5H-cyclopenta[d]pyrimidin-4-yl)-2H-spiro[benzofuran-3,4′-oxazolidin]-2′-one]: 0.3 nM, 43 nM and 6.6 nM.
As to `C[C@H]1CCN1c1nc2c(c(-c3cnc(C4(N)COC4)cn3)n1)CCC2` [Example 507, (S)-3-(5-(2-(2-methylazetidin-1-yl)-6,7-dihydro-5H-cyclopenta[d]pyrimidin-4-yl)pyrazin-2-yl)oxetan-3-amine], at human KHK-C, half-maximal inhibition (IC50) required 73.6 nM. In addition, the values for the EC50 in the assay with HepG2 cells (setting [1]) and with HepG2 cells (setting [2]) were 247 nM and 138 nM, respectively.
Turning to `CN=S(C)(=O)c1cccc(-c2nc(N3C[C@@H](O)[C@@H]3C)nc3c2CCC3(F)F)c1` (stereo partly drawn) [Example 508, (3-(7,7-difluoro-2-((2S,3R)-3-hydroxy-2-methylazetidin-1-yl)-6,7-dihydro-5H-cyclopenta[d]pyrimidin-4-yl)phenyl)(methyl)(methylimino)-λ^6-sulfanone], on human KHK-C, the IC50 – broadly, the concentration needed to halve the response being measured – was determined as 61.2 nM. Moreover, the values for the EC50 in the assay with HepG2 cells (setting [1]) and with HepG2 cells (setting [2]) were 254 nM and 126 nM, respectively.
The matching figures for `C[C@H]1[C@H](O)CN1c1nc(-c2cccc(S(C)(=O)=O)c2)c2c(n1)C(F)(F)CC2` [Example 509, (2S,3R)-1-(7,7-difluoro-4-(3-(methylsulfonyl)phenyl)-6,7-dihydro-5H-cyclopenta[d]pyrimidin-2-yl)-2-methylazetidin-3-ol]: 19.9 nM, 58.1 nM and 25.1 nM.
The matching figures for `CCS(=N)(=O)c1cccc(-c2nc(N3C[C@@H](O)[C@@H]3C)nc3c2CCC3(F)F)c1` (stereo partly drawn) [Example 511, (3-(7,7-difluoro-2-((2S,3R)-3-hydroxy-2-methylazetidin-1-yl)-6,7-dihydro-5H-cyclopenta[d]pyrimidin-4-yl)phenyl)(ethyl)(imino)-λ^6-sulfanone]: 20.9 nM, 46.1 nM and 34.6 nM.
The matching figures for `C[C@H]1[C@H](O)CN1c1nc(-c2ccc(C3(N)COC3)c(C(F)(F)F)c2)c2c(n1)C(F)(F)CC2` [Example 514, (2S,3R)-1-(4-(4-(3-aminooxetan-3-yl)-3-(trifluoromethyl)phenyl)-7,7-difluoro-6,7-dihydro-5H-cyclopenta[d]pyrimidin-2-yl)-2-methylazetidin-3-ol]: 10.6 nM, 72.3 nM and 41.6 nM.
`C[C@H]1[C@H](O)CN1c1nc(-c2ccc(C(F)(F)CN)cc2)c2c(n1)C(F)(F)CC2` [Example 515, (2S,3R)-1-(4-(4-(2-amino-1,1-difluoroethyl)phenyl)-7,7-difluoro-6,7-dihydro-5H-cyclopenta[d]pyrimidin-2-yl)-2-methylazetidin-3-ol]: at human KHK-C, the IC50 is 29.7 nM. The EC50 (usually the midpoint of the concentration-response curve) in the assay with HepG2 cells (setting [1]) stood at 126 nM; in the assay on HepG2 cells (setting [2]), 59.1 nM.
The matching figures for `C[C@@H]1N(c2nc(-c3ccc4c(c3)CCNC43COC3)c3c(n2)C(F)(F)CC3)CC1(F)F` [Example 519, (S)-6-(2-(3,3-difluoro-2-methylazetidin-1-yl)-7,7-difluoro-6,7-dihydro-5H-cyclopenta[d]pyrimidin-4-yl)-3,4-dihydro-2H-spiro[isoquinoline-1,3′-oxetane]]: 2.2 nM, 23 nM and 10.1 nM.
Molecule `C[C@H]1[C@H](O)CN1c1nc(-c2ccc3c(c2)C2CC(C2)NC3=O)c2c(n1)C(F)(F)CC2` [Example 520, 7-(7,7-difluoro-2-((2S,3R)-3-hydroxy-2-methylazetidin-1-yl)-6,7-dihydro-5H-cyclopenta[d]pyrimidin-4-yl)-2,3,4,5-tetrahydro-1H-3,5-methanobenzo[c]azepin-1-one] yielded an IC50 against human KHK-C of 11.1 nM. The EC50 in the assay on HepG2 cells (setting [1]) is 109 nM; in the assay on HepG2 cells (setting [2]) it was 49.8 nM.
The matching figures for `C[C@H]1[C@H](O)CN1c1nc(-c2ccc3c(c2)OCCNC32COC2)c2c(n1)C(F)(F)CC2` [Example 521, (2S,3R)-1-(4-(3,4-dihydro-2H-spiro[benzo[f][1,4]oxazepine-5,3′-oxetan]-8-yl)-7,7-difluoro-6,7-dihydro-5H-cyclopenta[d]pyrimidin-2-yl)-2-methylazetidin-3-ol]: 9.8 nM, above 100 nM and 68.4 nM.
On to `C[C@H]1CCN1c1nc2c(c(-c3ccc(Cl)c(S(N)(=O)=O)c3)n1)CCC2` [Example 522, (S)-2-chloro-5-(2-(2-methylazetidin-1-yl)-6,7-dihydro-5H-cyclopenta[d]pyrimidin-4-yl)benzenesulfonamide], for which half-maximal inhibition against human KHK-C (IC50) required 44.5 nM. Moreover, the values for the EC50 with HepG2 cells (setting [1]) and in the assay with HepG2 cells (setting [2]) were 454 nM and 53.3 nM, respectively.
At human KHK-C, `C[C@H]1[C@H](F)CN1c1nc(-c2ccc3c(c2)OC[C@@H]3NS(C)(=O)=O)c2c(n1)C(F)(F)CC2` [Example 523, N—((R)-6-(7,7-difluoro-2-((2S,3R)-3-fluoro-2-methylazetidin-1-yl)-6,7-dihydro-5H-cyclopenta[d]pyrimidin-4-yl)-2,3-dihydrobenzofuran-3-yl)methanesulfonamide] had an IC50 of 0.7 nM. The values for the EC50 with HepG2 cells (setting [1]) and with HepG2 cells (setting [2]) were 51.3 nM and 5.1 nM, respectively.
The matching figures for `C[C@H]1[C@@H](F)CN1c1nc(-c2ccc3c(c2)OC[C@@H]3NS(C)(=O)=O)c2c(n1)C(F)(F)CC2` [Example 524, N—((R)-6-(7,7-difluoro-2-((2S,3S)-3-fluoro-2-methylazetidin-1-yl)-6,7-dihydro-5H-cyclopenta[d]pyrimidin-4-yl)-2,3-dihydrobenzofuran-3-yl)methanesulfonamide]: 1 nM, 60.1 nM and 8.2 nM.
`COc1cc(-c2nc(N3C[C@@H](O)[C@@H]3C)nc3c2CCC3(F)F)cc2c1[C@@H](NS(C)(=O)=O)CO2` [Example 529, N-(6-(7,7-difluoro-2-((2S,3R)-3-hydroxy-2-methylazetidin-1-yl)-6,7-dihydro-5H-cyclopenta[d]pyrimidin-4-yl)-4-methoxy-2,3-dihydrobenzofuran-3-yl)methanesulfonamide]: the IC50 against human KHK-C worked out at 2.7 nM. Also, the values for the 50% effective concentration (EC50) in the assay on HepG2 cells (setting [3]) and in the assay on HepG2 cells (setting [4]) were 65.3 nM and 26.2 nM, respectively.
The matching figures for `COc1cc(-c2nc(N3C[C@@H](O)[C@@H]3C)nc3c2CCC3(F)F)cc2c1[C@@H](NS(C)(=O)=O)CO2` [Example 530]: 1.5 nM, 142 nM and 29.7 nM.
